# Measurements as given in ChEMBL document CHEMBL1142840, “4-Phenylcoumarins as HIV transcription inhibitors” (Bioorg Med Chem Lett, 2005).
# Target: Human immunodeficiency virus type 1 reverse transcriptase (Human immunodeficiency virus 1, UniProt Q72547)
# Assay: Inhibitory concentration against recombinant human immunodeficiency virus 1 reverse transcriptase
row,Structure (SMILES),IC50 [µM]
1,CC(C)CC(=O)c1c(O)cc(O)c2c(-c3ccccc3)cc(=O)oc12 [ISODISPAR B],6.9
2,CC(C)=CCc1c(O)c(C(=O)C(C)C)c2oc(=O)cc(-c3ccccc3)c2c1O [ISOMESUOL],31.9
3,CC(C)=CCc1c(O)cc(O)c2c(-c3ccccc3)cc(=O)oc12,11.2
4,CC(C)CC(=O)c1c2c(c3oc(=O)cc(-c4ccccc4)c3c1O)C=CC(C)(C)O2 [MAMMEIGIN],124
5,CC1CN(C2CC(N=[N+]=[N-])[C@@H](CO)C2)C(=O)NC1=O (stereo partly drawn),0.01
6,CC(C)=CCc1c(O)c(C(=O)C(C)C)c(O)c2c(-c3ccccc3)cc(=O)oc12 [MESUOL],2.5
7,CC(C)=C(O)Cc1c(O)c(C(=O)CC(C)C)c(O)c2c(-c3ccccc3)cc(=O)oc12,0.5
8,CC(C)C(=O)c1c2c(c3oc(=O)cc(-c4ccccc4)c3c1O)C=CC(C)(C)O2 [MESUAGIN],32.1
9,COc1c(C(=O)CC(C)C)c(O)c(CC=C(C)C)c2oc(=O)cc(-c3ccccc3)c12,22.2

# System: not listed separately
# Assay: Anti-HIV activity (at 25 uM) against Jurkat-derived 5.1 cell line stably transfected with HIV-LTR activated by TNF alpha
# Type: functional
Structure (SMILES),inhibition at 25 µM [%],Inhibition [%]
CC(C)CC(=O)c1c(O)cc(O)c2c(-c3ccccc3)cc(=O)oc12 [ISODISPAR B],81,–
CC(C)=CCc1c(O)c(C(=O)C(C)C)c2oc(=O)cc(-c3ccccc3)c2c1O [ISOMESUOL],67,–
CC(C)=CCc1c(O)cc(O)c2c(-c3ccccc3)cc(=O)oc12,33.4,–
CC(C)CC(=O)c1c2c(c3oc(=O)cc(-c4ccccc4)c3c1O)C=CC(C)(C)O2 [MAMMEIGIN],5.9,–
CC(C)CC(=O)c1c2c(c3oc(=O)cc(-c4ccccc4)c3c1O)C[C@@H](C(C)(C)O)O2 [CYCLOMAMMEISIN],66.9,–
CC(C)=CCc1c(O)c(C(=O)C(C)C)c(O)c2c(-c3ccccc3)cc(=O)oc12 [MESUOL],67.1,71
CC(C)=C(O)Cc1c(O)c(C(=O)CC(C)C)c(O)c2c(-c3ccccc3)cc(=O)oc12,55.4,–
CC(C)C(=O)c1c2c(c3oc(=O)cc(-c4ccccc4)c3c1O)C=CC(C)(C)O2 [MESUAGIN],10.8,–

# System: HeLa
# Assay: Anti-HIV activity (at 50 uM) against human HeLa cells through a HeLa-Tet-ON assay; U= specific
# Type: functional, cell-based
row,Structure (SMILES),inhibition
1,CC(C)=CCc1c(O)c(C(=O)C(C)C)c(O)c2c(-c3ccccc3)cc(=O)oc12 [MESUOL],Specific

# System: HeLa
# Assay: Anti-HIV activity (at 50 uM) against human HeLa cells through a HeLa-Tet-ON assay; U= unspecific
# Type: functional, cell-based
row,Structure (SMILES),inhibition
1,CC(C)C(=O)c1c2c(c3oc(=O)cc(-c4ccccc4)c3c1O)C[C@@H](C(C)(C)O)O2 [MESUOL CYCLO F],Unspecific
2,CC(=O)Oc1c(C(=O)CC(C)C)c(OC(C)=O)c2c(-c3ccccc3)cc(=O)oc2c1CC=C(C)C [MAMMEISIN DIACETATE],Unspecific
3,CC(C)=CCc1c(O)c(C(=O)CC(C)C)c(O)c2c(-c3ccccc3)cc(=O)oc12 [MAMMEISIN],Unspecific
4,CCC(C)C(=O)c1c(O)c(CC=C(C)C)c2oc(=O)cc(-c3ccccc3)c2c1O (stereo not drawn),Unspecific
5,CC(C)=CCc1c(O)c(C(O)CC(C)C)c(O)c2c(-c3ccccc3)cc(=O)oc12 (stereo not drawn),Unspecific
6,CC(C)CC(=O)c1c2c(c3oc(=O)cc(-c4ccccc4)c3c1O)C[C@@H](C(C)(C)O)O2 [CYCLOMAMMEISIN],Unspecific
7,CC(C)=CCc1c(O)c(C(=O)C(C)C)c(O)c2c(-c3ccccc3)cc(=O)oc12 [MESUOL],Unspecific

# System: HeLa
# Assay: Anti-HIV activity (at 25 uM) against human HeLa-Tat-Luc cells transfected with HIV-1 LTR activated by Tat protein
# Type: functional
row,Structure (SMILES),inhibition at 25 µM [%]
1,CC(C)CC(=O)c1c(O)cc(O)c2c(-c3ccccc3)cc(=O)oc12 [ISODISPAR B],42
2,CC(C)=CCc1c(O)c(C(=O)C(C)C)c2oc(=O)cc(-c3ccccc3)c2c1O [ISOMESUOL],36.7
3,CC(C)CC(=O)c1c2c(c3oc(=O)cc(-c4ccccc4)c3c1O)C=CC(C)(C)O2 [MAMMEIGIN],2
4,CC(C)=CCc1c(O)c(C(=O)C(C)C)c(O)c2c(-c3ccccc3)cc(=O)oc12 [MESUOL],11.5
5,CC(C)=C(O)Cc1c(O)c(C(=O)CC(C)C)c(O)c2c(-c3ccccc3)cc(=O)oc12,43.6
6,CC(C)C(=O)c1c2c(c3oc(=O)cc(-c4ccccc4)c3c1O)C=CC(C)(C)O2 [MESUAGIN],0

# System: HeLa
# Assay: Anti-HIV activity (at 50 uM) against human HeLa-Tat-Luc cells transfected with HIV-1 LTR activated by Tat protein
# Type: functional
row,Structure (SMILES),inhibition at 50 µM [%]
1,CC(C)CC(=O)c1c(O)cc(O)c2c(-c3ccccc3)cc(=O)oc12 [ISODISPAR B],69.4
2,CC(C)C(=O)c1c2c(c3oc(=O)cc(-c4ccccc4)c3c1O)C[C@@H](C(C)(C)O)O2 [MESUOL CYCLO F],59.5
3,CC(C)=CCc1c(O)c(C(=O)C(C)C)c2oc(=O)cc(-c3ccccc3)c2c1O [ISOMESUOL],34.3
4,CC(=O)Oc1c(C(=O)CC(C)C)c(OC(C)=O)c2c(-c3ccccc3)cc(=O)oc2c1CC=C(C)C [MAMMEISIN DIACETATE],50.4
5,CC(C)=CCc1c(O)c(C(=O)CC(C)C)c(O)c2c(-c3ccccc3)cc(=O)oc12 [MAMMEISIN],53.1
6,CC(C)=CCc1c(O)cc(O)c2c(-c3ccccc3)cc(=O)oc12,15.4
7,CC(C)CC(=O)c1c2c(c3oc(=O)cc(-c4ccccc4)c3c1O)C=CC(C)(C)O2 [MAMMEIGIN],3
8,CCC(C)C(=O)c1c(O)c(CC=C(C)C)c2oc(=O)cc(-c3ccccc3)c2c1O (stereo not drawn),86.7
9,CC(C)=CCc1c(O)c(C(O)CC(C)C)c(O)c2c(-c3ccccc3)cc(=O)oc12 (stereo not drawn),47.6
10,CC(C)CC(=O)c1c2c(c3oc(=O)cc(-c4ccccc4)c3c1O)C[C@@H](C(C)(C)O)O2 [CYCLOMAMMEISIN],22
11,CC(C)=CCc1c(O)c(C(=O)C(C)C)c(O)c2c(-c3ccccc3)cc(=O)oc12 [MESUOL],71.3
12,CC(C)=C(O)Cc1c(O)c(C(=O)CC(C)C)c(O)c2c(-c3ccccc3)cc(=O)oc12,70.4
13,CC(C)C(=O)c1c2c(c3oc(=O)cc(-c4ccccc4)c3c1O)C=CC(C)(C)O2 [MESUAGIN],0
14,COc1c(C(=O)CC(C)C)c(O)c(CC=C(C)C)c2oc(=O)cc(-c3ccccc3)c12,13.5

# System: not listed separately
# Assay: Anti-HIV activity (at 50 uM) against Jurkat-derived 5.1 cell line stably transfected with HIV-LTR activated by TNF alpha
# Type: functional
row,Structure (SMILES),inhibition at 50 µM [%]
1,CC(C)CC(=O)c1c(O)cc(O)c2c(-c3ccccc3)cc(=O)oc12 [ISODISPAR B],85.6
2,CC(C)C(=O)c1c2c(c3oc(=O)cc(-c4ccccc4)c3c1O)C[C@@H](C(C)(C)O)O2 [MESUOL CYCLO F],59.4
3,CC(C)=CCc1c(O)c(C(=O)C(C)C)c2oc(=O)cc(-c3ccccc3)c2c1O [ISOMESUOL],67.1
4,CC(=O)Oc1c(C(=O)CC(C)C)c(OC(C)=O)c2c(-c3ccccc3)cc(=O)oc2c1CC=C(C)C [MAMMEISIN DIACETATE],81.1
5,CC(C)=CCc1c(O)c(C(=O)CC(C)C)c(O)c2c(-c3ccccc3)cc(=O)oc12 [MAMMEISIN],58.8
6,CC(C)=CCc1c(O)cc(O)c2c(-c3ccccc3)cc(=O)oc12,84.5
7,CC(C)CC(=O)c1c2c(c3oc(=O)cc(-c4ccccc4)c3c1O)C=CC(C)(C)O2 [MAMMEIGIN],15.7
8,CCC(C)C(=O)c1c(O)c(CC=C(C)C)c2oc(=O)cc(-c3ccccc3)c2c1O (stereo not drawn),85.2
9,CC(C)=CCc1c(O)c(C(O)CC(C)C)c(O)c2c(-c3ccccc3)cc(=O)oc12 (stereo not drawn),60
10,CC(C)CC(=O)c1c2c(c3oc(=O)cc(-c4ccccc4)c3c1O)C[C@@H](C(C)(C)O)O2 [CYCLOMAMMEISIN],86.3
11,CC(C)=CCc1c(O)c(C(=O)C(C)C)c(O)c2c(-c3ccccc3)cc(=O)oc12 [MESUOL],77.9
12,CC(C)=C(O)Cc1c(O)c(C(=O)CC(C)C)c(O)c2c(-c3ccccc3)cc(=O)oc12,53.1
13,CC(C)C(=O)c1c2c(c3oc(=O)cc(-c4ccccc4)c3c1O)C=CC(C)(C)O2 [MESUAGIN],20.2
14,COc1c(C(=O)CC(C)C)c(O)c(CC=C(C)C)c2oc(=O)cc(-c3ccccc3)c12,43.6

# System: MT2
# Assay: Toxicity of compound against human MT-2 cell line at the concentration of 50 uM
# Type: functional
row,Structure (SMILES),Cell death [%]
1,CC(C)CC(=O)c1c(O)cc(O)c2c(-c3ccccc3)cc(=O)oc12 [ISODISPAR B],17.2
2,CC(C)C(=O)c1c2c(c3oc(=O)cc(-c4ccccc4)c3c1O)C[C@@H](C(C)(C)O)O2 [MESUOL CYCLO F],79.5
3,CC(C)=CCc1c(O)c(C(=O)C(C)C)c2oc(=O)cc(-c3ccccc3)c2c1O [ISOMESUOL],11.5
4,CC(=O)Oc1c(C(=O)CC(C)C)c(OC(C)=O)c2c(-c3ccccc3)cc(=O)oc2c1CC=C(C)C [MAMMEISIN DIACETATE],15.7
5,CC(C)=CCc1c(O)c(C(=O)CC(C)C)c(O)c2c(-c3ccccc3)cc(=O)oc12 [MAMMEISIN],16.6
6,CC(C)=CCc1c(O)cc(O)c2c(-c3ccccc3)cc(=O)oc12,34.4
7,CC(C)CC(=O)c1c2c(c3oc(=O)cc(-c4ccccc4)c3c1O)C=CC(C)(C)O2 [MAMMEIGIN],4.7
8,CCC(C)C(=O)c1c(O)c(CC=C(C)C)c2oc(=O)cc(-c3ccccc3)c2c1O (stereo not drawn),28.8
9,CC(C)=CCc1c(O)c(C(O)CC(C)C)c(O)c2c(-c3ccccc3)cc(=O)oc12 (stereo not drawn),8
10,CC1CN(C2CC(N=[N+]=[N-])[C@@H](CO)C2)C(=O)NC1=O (stereo partly drawn),>100
11,CC(C)CC(=O)c1c2c(c3oc(=O)cc(-c4ccccc4)c3c1O)C[C@@H](C(C)(C)O)O2 [CYCLOMAMMEISIN],34.1
12,CC(C)=CCc1c(O)c(C(=O)C(C)C)c(O)c2c(-c3ccccc3)cc(=O)oc12 [MESUOL],22.5
13,CC(C)=C(O)Cc1c(O)c(C(=O)CC(C)C)c(O)c2c(-c3ccccc3)cc(=O)oc12,18.5
14,CC(C)C(=O)c1c2c(c3oc(=O)cc(-c4ccccc4)c3c1O)C=CC(C)(C)O2 [MESUAGIN],4.5
15,COc1c(C(=O)CC(C)C)c(O)c(CC=C(C)C)c2oc(=O)cc(-c3ccccc3)c12,4.8

# System: HeLa
# Assay: Anti-HIV activity (at 50 uM) against human HeLa cells through a HeLa-Tet-ON assay; S= specific
# Type: functional, cell-based
row,Structure (SMILES),inhibition
1,CC(C)CC(=O)c1c(O)cc(O)c2c(-c3ccccc3)cc(=O)oc12 [ISODISPAR B],Specific
2,CC(C)=CCc1c(O)c(C(=O)C(C)C)c2oc(=O)cc(-c3ccccc3)c2c1O [ISOMESUOL],Specific
3,CC(C)=C(O)Cc1c(O)c(C(=O)CC(C)C)c(O)c2c(-c3ccccc3)cc(=O)oc12,Specific
